# From US20080009418A1, “Selective Inhibitors” (Alchemia LTD., priority 2004, published 2008)
# Assays:
# [1] = biological target: T1, Human neuropeptide Y (NPY-Y1) (Homo sapiens, UniProt P25929); experiment: Radioligand binding, human neuropeptide Y NPY-Y1 membranes, FlashPlate, [125I]-PYY; settings: compound at 10 μM
# T1 construct: purchased Perkin Elmer Biosignal
# T1 sequence (P25929 1-384): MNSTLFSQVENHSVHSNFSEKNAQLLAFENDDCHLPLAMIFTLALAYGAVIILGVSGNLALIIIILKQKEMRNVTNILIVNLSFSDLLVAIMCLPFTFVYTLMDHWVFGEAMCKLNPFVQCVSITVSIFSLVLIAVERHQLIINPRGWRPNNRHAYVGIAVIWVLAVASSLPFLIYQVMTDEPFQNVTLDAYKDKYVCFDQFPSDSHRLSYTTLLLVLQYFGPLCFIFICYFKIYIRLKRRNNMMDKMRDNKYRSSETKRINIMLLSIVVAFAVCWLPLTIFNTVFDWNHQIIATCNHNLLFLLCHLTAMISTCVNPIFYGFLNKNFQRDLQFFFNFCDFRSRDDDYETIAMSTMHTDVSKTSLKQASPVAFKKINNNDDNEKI
# Method in brief: (§1)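 Cloned human receptor membranes were coated onto FlashPlate wells and incubated with radioligand and compound (added from a 0.5 mM DMSO daughter plate) for 1 hour at room temperature in the dark. Scintillation counting gave percent inhibition, with DMSO defining total and reference ligand defining non-specific binding.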
# Mouse urotensin (mUR2) = biological target: T2, Mouse urotensin (mUR2) (Mus musculus, UniProt Q8VIH9); experiment: Radioligand binding, mouse urotensin mUR2 membranes, FlashPlate, [125I]-Urotensin II; settings: compound at 10 μM
# T2 construct: purchased Perkin Elmer Biosignal
# T2 sequence (Q8VIH9 1-385): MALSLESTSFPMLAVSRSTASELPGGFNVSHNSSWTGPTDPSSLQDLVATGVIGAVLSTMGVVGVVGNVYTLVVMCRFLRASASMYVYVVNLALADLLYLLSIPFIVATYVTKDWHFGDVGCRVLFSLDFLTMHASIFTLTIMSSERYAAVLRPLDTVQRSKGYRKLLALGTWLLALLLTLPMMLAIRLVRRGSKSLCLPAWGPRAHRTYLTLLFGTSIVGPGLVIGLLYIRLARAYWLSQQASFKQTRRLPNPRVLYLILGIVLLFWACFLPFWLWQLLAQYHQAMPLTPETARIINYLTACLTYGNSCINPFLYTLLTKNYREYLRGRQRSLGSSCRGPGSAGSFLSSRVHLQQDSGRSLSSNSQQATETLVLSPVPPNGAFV
# Method in brief: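 Cloned mouse urotensin (mUR2) receptor membranes from Perkin Elmer Biosignal were immobilized in FlashPlate microplates using a proprietary coating. Each well got 19.5 μl buffer, then 0.5 μl of DMSO, reference ligand, or compound. Adding 5 μl of [125I]-Urotensin II, diluted to 5× final concentration in binding buffer, started binding. Plates were sealed with TopSeal-A and incubated 1 hour at room temperature in the dark. Wells were counted for 30 seconds each on a TopCount after a 60-second delay, and percentage inhibition was calculated.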
# Human Melanocortin (MC3) = biological target: T3, Human Melanocortin (MC3) (Homo sapiens, UniProt P41968); experiment: Radioligand binding, human melanocortin MC3 membranes, FlashPlate, [125I]-NDP-αMSH; settings: compound at 10 μM
# T3 construct: purchased Perkin Elmer Biosignal
# Method in brief: as §1
# Human δ-opioid (DOP) = biological target: T4, Human δ-opioid (DOP) (Homo sapiens, UniProt P41143); experiment: Radioligand binding, human δ-opioid (DOP) membranes, FlashPlate, [3H]-Bremazocine; settings: compound at 10 μM
# T4 construct: purchased Perkin Elmer Biosignal
# Method in brief: as §1
# Human Melanocortin (MC4) = biological target: T5, Human Melanocortin (MC4) (Homo sapiens, UniProt P32245); experiment: Radioligand binding, human melanocortin MC4 membranes, FlashPlate, [125I]-NDP-αMSH; settings: compound at 10 μM
# T5 construct: purchased Perkin Elmer Biosignal
# Method in brief: as §1
# Human κ-Opioid (KOP) = biological target: T6, Human κ-Opioid (KOP) (Homo sapiens, UniProt P41145); experiment: Radioligand binding, human κ-opioid (KOP) membranes, filtration, [3H]-Diprenorphine; settings: compound at 10 μM
# T6 construct: purchased Perkin Elmer Biosignal
# Method in brief: (§2)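 Filtration binding on cloned human receptor membranes (1 Unit/well), [125I]-Substance P for NK1 and [3H]-Diprenorphine for KOP, 1 h at room temperature. Filters PEI-presoaked, washed with cold 50 mM Tris-HCl pH 7.4, counted by scintillation; percent inhibition calculated, reference ligand defining non-specific binding.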
# Human opioid (ORL1) = biological target: T7, Human opioid (ORL1) (Homo sapiens, UniProt P41146); experiment: Radioligand binding, human opioid ORL1 membranes, FlashPlate, [125I]-Nociceptin; settings: compound at 10 μM
# T7 construct: purchased Perkin Elmer Biosignal
# Method in brief: as §1
# [2] = biological target: T8, Human melanin-concentrating hormone (MCH1) (Homo sapiens, UniProt Q99705); experiment: Radioligand binding, human melanin-concentrating hormone MCH1 membranes, FlashPlate, [125I]-S36057; settings: compound at 10 μM; for A6: inhibition of radioligand binding, human melanin-concentrating hormone (MCH1): [125I]-S36057
# T8 construct: purchased Perkin Elmer Biosignal
# Method in brief: as §1
# Human melanocortin (MC5) = biological target: T9, Human melanocortin (MC5) (Homo sapiens, UniProt P33032); experiment: Radioligand binding, human melanocortin MC5 membranes, FlashPlate, [125I]-NDP-αMSH; settings: compound at 10 μM
# T9 construct: purchased Perkin Elmer Biosignal
# Method in brief: as §1
# Human μ-opioid (MOP) = biological target: T10, Human μ-opioid (MOP) (Homo sapiens, UniProt P35372); experiment: Radioligand binding, human μ-opioid (MOP) membranes, FlashPlate, [3H]-Naloxone; settings: compound at 10 μM
# T10 construct: purchased Perkin Elmer Biosignal
# Method in brief: as §1
# Human neurokinin (NK1) = biological target: T11, Human neurokinin (NK1) (Homo sapiens, UniProt P25103); experiment: Radioligand binding, human neurokinin NK1 membranes, filtration, [125I]-Substance P; settings: compound at 10 μM
# T11 construct: purchased Perkin Elmer Biosignal
# Method in brief: as §2
# T6 sequence (P41145 whole entry): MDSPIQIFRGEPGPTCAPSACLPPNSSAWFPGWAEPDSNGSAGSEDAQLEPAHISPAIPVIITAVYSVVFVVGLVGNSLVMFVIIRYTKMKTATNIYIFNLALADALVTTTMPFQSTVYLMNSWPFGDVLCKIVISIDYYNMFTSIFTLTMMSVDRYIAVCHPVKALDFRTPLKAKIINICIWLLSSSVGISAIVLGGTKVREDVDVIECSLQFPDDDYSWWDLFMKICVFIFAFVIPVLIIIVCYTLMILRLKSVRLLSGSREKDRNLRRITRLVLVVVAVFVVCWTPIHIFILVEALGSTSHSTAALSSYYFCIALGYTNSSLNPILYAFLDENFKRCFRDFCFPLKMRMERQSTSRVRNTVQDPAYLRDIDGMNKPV
# T3 sequence (P41968 whole entry): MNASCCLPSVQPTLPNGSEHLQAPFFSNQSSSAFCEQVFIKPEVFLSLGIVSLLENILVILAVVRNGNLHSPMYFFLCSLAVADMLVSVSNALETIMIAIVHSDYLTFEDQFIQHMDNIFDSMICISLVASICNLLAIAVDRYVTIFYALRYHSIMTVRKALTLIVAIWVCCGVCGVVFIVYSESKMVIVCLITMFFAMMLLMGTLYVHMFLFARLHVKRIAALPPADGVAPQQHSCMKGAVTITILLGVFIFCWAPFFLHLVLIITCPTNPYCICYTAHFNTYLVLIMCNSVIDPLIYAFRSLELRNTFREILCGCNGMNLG
# T8 sequence (Q99705 whole entry): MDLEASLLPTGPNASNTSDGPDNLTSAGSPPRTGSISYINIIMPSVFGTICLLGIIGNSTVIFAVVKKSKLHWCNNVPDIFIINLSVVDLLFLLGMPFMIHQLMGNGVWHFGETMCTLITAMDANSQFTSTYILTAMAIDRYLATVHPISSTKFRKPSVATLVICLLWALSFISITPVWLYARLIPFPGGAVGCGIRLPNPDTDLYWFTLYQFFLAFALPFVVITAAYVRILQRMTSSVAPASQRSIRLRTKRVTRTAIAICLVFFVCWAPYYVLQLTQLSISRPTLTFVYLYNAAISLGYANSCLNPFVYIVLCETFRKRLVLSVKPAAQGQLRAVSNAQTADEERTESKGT
# T10 sequence (P35372 whole entry): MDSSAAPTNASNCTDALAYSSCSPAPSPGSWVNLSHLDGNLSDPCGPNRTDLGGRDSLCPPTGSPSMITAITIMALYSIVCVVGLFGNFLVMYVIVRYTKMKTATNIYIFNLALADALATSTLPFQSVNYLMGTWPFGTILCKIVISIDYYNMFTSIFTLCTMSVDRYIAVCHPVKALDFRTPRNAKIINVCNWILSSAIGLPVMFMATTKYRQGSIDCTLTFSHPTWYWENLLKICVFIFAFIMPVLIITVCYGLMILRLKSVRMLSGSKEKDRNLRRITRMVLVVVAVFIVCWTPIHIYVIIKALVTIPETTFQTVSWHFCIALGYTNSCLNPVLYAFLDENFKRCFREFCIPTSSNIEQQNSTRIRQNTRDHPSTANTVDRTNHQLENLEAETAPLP
# T4 sequence (P41143 whole entry): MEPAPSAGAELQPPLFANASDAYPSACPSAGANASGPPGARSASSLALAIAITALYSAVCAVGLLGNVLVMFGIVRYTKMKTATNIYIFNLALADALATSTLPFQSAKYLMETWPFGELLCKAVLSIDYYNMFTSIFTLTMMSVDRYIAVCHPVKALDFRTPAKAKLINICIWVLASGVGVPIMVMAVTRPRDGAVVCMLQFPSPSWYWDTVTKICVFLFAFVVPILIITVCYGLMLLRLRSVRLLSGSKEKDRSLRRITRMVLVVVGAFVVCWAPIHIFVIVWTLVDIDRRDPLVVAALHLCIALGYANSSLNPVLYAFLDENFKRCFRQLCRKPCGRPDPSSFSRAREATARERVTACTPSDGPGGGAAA
# T5 sequence (P32245 whole entry): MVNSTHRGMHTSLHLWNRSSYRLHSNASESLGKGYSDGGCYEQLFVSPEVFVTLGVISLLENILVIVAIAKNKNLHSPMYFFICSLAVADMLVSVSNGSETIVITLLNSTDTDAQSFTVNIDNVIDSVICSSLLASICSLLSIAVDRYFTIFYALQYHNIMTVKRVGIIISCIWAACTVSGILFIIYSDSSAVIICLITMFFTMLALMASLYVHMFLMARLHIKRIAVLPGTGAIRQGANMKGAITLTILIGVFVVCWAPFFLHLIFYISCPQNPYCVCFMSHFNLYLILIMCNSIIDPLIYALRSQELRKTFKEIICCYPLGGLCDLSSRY
# T9 sequence (P33032 whole entry): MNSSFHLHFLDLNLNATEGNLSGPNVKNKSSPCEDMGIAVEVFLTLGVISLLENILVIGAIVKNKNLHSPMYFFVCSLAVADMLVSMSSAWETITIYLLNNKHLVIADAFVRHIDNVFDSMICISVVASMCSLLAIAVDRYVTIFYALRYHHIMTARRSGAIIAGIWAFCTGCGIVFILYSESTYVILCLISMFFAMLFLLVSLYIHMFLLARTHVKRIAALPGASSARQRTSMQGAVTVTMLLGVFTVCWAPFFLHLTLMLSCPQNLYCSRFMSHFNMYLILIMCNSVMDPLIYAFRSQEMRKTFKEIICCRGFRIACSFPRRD
# T7 sequence (P41146 whole entry): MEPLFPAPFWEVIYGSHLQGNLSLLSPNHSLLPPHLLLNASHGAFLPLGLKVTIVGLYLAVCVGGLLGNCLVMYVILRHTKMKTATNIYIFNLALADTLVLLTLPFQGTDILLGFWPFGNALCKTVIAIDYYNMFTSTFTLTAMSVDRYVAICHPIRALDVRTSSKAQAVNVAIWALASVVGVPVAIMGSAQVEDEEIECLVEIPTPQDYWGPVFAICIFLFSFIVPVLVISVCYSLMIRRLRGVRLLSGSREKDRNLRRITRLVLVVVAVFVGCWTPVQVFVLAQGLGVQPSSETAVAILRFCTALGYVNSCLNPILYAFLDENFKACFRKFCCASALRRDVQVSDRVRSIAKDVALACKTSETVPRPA
# T11 sequence (P25103 whole entry): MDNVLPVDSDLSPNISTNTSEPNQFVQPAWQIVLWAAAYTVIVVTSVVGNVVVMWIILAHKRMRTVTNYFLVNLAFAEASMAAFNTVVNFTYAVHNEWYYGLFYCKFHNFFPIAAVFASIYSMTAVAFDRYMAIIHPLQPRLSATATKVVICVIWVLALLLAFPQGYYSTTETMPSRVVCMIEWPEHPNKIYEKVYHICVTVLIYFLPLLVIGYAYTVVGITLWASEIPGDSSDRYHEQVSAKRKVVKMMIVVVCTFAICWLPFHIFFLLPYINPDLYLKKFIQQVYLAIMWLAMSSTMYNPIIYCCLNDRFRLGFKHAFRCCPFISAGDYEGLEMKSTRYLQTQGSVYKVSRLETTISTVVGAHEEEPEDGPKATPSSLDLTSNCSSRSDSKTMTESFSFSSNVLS
Compound,"A3: inhibition of radioligand binding, human melanocortin (MC3) (Human Melanocortin (MC3); [125I]-NDP-αMSH)","A1: inhibition of radioligand binding, human δ-opioid (DOP) (Human δ-opioid (DOP); [3H]-Bremazocine)","A4: inhibition of radioligand binding, human melanocortin (MC4) (Human Melanocortin (MC4); [125I]-NDP-αMSH)","A10: inhibition of radioligand binding, human opioid (ORL1) (Human opioid (ORL1); [125I]-Nociceptin)","A6: inhibition of radioligand binding, human melanin-concentrating hormone (MCH1) [2]","A5: inhibition of radioligand binding, human melanocortin (MC5) (Human melanocortin (MC5); [125I]-NDP-αMSH)","A7: inhibition of radioligand binding, human μ-opioid (MOP) (Human μ-opioid (MOP); [3H]-Naloxone)","A8: inhibition of radioligand binding, human neurokinin (NK1) (Human neurokinin (NK1); [125I]-Substance P)","A9: inhibition of radioligand binding, human neuropeptide Y (NPY-Y1) ([1]; [125I]-PYY)","A11: inhibition of radioligand binding, mouse urotensin (mUR2) (Mouse urotensin (mUR2); [125I]-Urotensin II)","A2: inhibition of radioligand binding, human κ-opioid (KOP) (Human κ-Opioid (KOP); [3H]-Diprenorphine)",further results
N=C(N)NCCC(=O)N[C@H]1C(OCc2ccc(Cl)cc2)O[C@H](COCc2ccc(Cl)cc2)[C@@H](O)[C@@H]1OCc1ccc(-c2ccccc2)cc1 (stereo partly shown) [compound 538],+ (“+” indicates greater than 50% inhibition at 10 μM),− (“−” indicates less than 50% inhibition at 10 μM),+ (“+” indicates greater than 50% inhibition at 10 μM),+ (“+” indicates greater than 50% inhibition at 10 μM),+ (“+” indicates greater than 50% inhibition at 10 μM),+ (“+” indicates greater than 50% inhibition at 10 μM),− (“−” indicates less than 50% inhibition at 10 μM),+ (“+” indicates greater than 50% inhibition at 10 μM),–,–,–,"A9: inhibition of radioligand binding, human neuropeptide Y (NPY-Y1) ([1]; [125I]-PYY, 10 µM): + (“+” indicates greater than 50% inhibition at 10 μM); A11: inhibition of radioligand binding, mouse urotensin (mUR2) (Mouse urotensin (mUR2); [125I]-Urotensin II, 10 µM): + (“+” indicates greater than 50% inhibition at 10 μM); A2: inhibition of radioligand binding, human κ-opioid (KOP) (Human κ-Opioid (KOP); [3H]-Diprenorphine, 10 µM): + (“+” indicates greater than 50% inhibition at 10 μM)"
COC[C@H]1OC(OCc2ccc(Cl)cc2)[C@H](NC(=O)CCCNC(=N)N)[C@@H](OCc2ccccc2)[C@@H]1O (stereo partly shown) [compound 36],–,–,–,–,–,–,–,–,–,–,–,A9 radioligand binding inhibition ([1]; human NPY-Y1 membranes): − (“−” indicates less than 50% inhibition at 10 μM); A11 radioligand binding inhibition (Mouse urotensin (mUR2); mouse urotensin mUR2 membranes): − (“−” indicates less than 50% inhibition at 10 μM); A3 radioligand binding inhibition (Human Melanocortin (MC3); human melanocortin MC3 membranes): − (“−” indicates less than 50% inhibition at 10 μM); A1 radioligand binding inhibition (Human δ-opioid (DOP); human δ-opioid (DOP) membranes): − (“−” indicates less than 50% inhibition at 10 μM); A4 radioligand binding inhibition (Human Melanocortin (MC4); human melanocortin MC4 membranes): − (“−” indicates less than 50% inhibition at 10 μM); A2 radioligand binding inhibition (Human κ-Opioid (KOP); human κ-opioid (KOP) membranes): − (“−” indicates less than 50% inhibition at 10 μM); A10 radioligand binding inhibition (Human opioid (ORL1); human ORL1 membranes): − (“−” indicates less than 50% inhibition at 10 μM); A6 radioligand binding inhibition ([2]; human MCH1 membranes): − (“−” indicates less than 50% inhibition at 10 μM); A5 radioligand binding inhibition (Human melanocortin (MC5); human melanocortin MC5 membranes): − (“−” indicates less than 50% inhibition at 10 μM); A7 radioligand binding inhibition (Human μ-opioid (MOP); human μ-opioid (MOP) membranes): + (“+” indicates greater than 50% inhibition at 10 μM); A8 radioligand binding inhibition (Human neurokinin (NK1); human neurokinin NK1 membranes): + (“+” indicates greater than 50% inhibition at 10 μM)
NCCCC(=O)NC1C(OCc2ccccc2)OC(COCc2ccccc2)C(O)C1OCc1ccc(Cl)cc1 (stereo not shown) [compound 373],− (“−” indicates less than 50% inhibition at 10 μM),− (“−” indicates less than 50% inhibition at 10 μM),+ (“+” indicates greater than 50% inhibition at 10 μM),− (“−” indicates less than 50% inhibition at 10 μM),− (“−” indicates less than 50% inhibition at 10 μM),+ (“+” indicates greater than 50% inhibition at 10 μM),− (“−” indicates less than 50% inhibition at 10 μM),+ (“+” indicates greater than 50% inhibition at 10 μM),− (“−” indicates less than 50% inhibition at 10 μM),− (“−” indicates less than 50% inhibition at 10 μM),− (“−” indicates less than 50% inhibition at 10 μM),–
N=C(N)NCCC(=O)NC1C(OCc2ccc(-c3ccccc3)cc2)OC(COCc2ccc3ccccc3c2)C(O)C1OCc1ccc2ccccc2c1 (stereo not shown) [compound 411],–,–,–,–,–,–,–,–,–,–,–,"A9: inhibition of radioligand binding ([1]; [125I]-PYY, human NPY-Y1 membranes): − (“−” indicates less than 50% inhibition at 10 μM); A11: inhibition of radioligand binding (Mouse urotensin (mUR2); [125I]-Urotensin II, mouse mUR2 membranes): − (“−” indicates less than 50% inhibition at 10 μM); A3: inhibition of radioligand binding (Human Melanocortin (MC3); [125I]-NDP-αMSH, human MC3 membranes): + (“+” indicates greater than 50% inhibition at 10 μM); A1: inhibition of radioligand binding (Human δ-opioid (DOP); [3H]-Bremazocine, human DOP membranes): − (“−” indicates less than 50% inhibition at 10 μM); A4: inhibition of radioligand binding (Human Melanocortin (MC4); [125I]-NDP-αMSH, human MC4 membranes): + (“+” indicates greater than 50% inhibition at 10 μM); A2: inhibition of radioligand binding (Human κ-Opioid (KOP); [3H]-Diprenorphine, human KOP membranes): − (“−” indicates less than 50% inhibition at 10 μM); A10: inhibition of radioligand binding (Human opioid (ORL1); [125I]-Nociceptin, human ORL1 membranes): + (“+” indicates greater than 50% inhibition at 10 μM); A6: inhibition of radioligand binding ([2]; [125I]-S36057, human MCH1 membranes): + (“+” indicates greater than 50% inhibition at 10 μM); A5: inhibition of radioligand binding (Human melanocortin (MC5); [125I]-NDP-αMSH, human MC5 membranes): + (“+” indicates greater than 50% inhibition at 10 μM); A7: inhibition of radioligand binding (Human μ-opioid (MOP); [3H]-Naloxone, human MOP membranes): − (“−” indicates less than 50% inhibition at 10 μM); A8: inhibition of radioligand binding (Human neurokinin (NK1); [125I]-Substance P, human NK1 membranes): + (“+” indicates greater than 50% inhibition at 10 μM)"
"COC[C@H]1OC(OCc2ccc(Cl)cc2)[C@H](NC(=O)CCCN)[C@@H](OCc2ccc3ccccc3c2)[C@@H]1O (single isomer, unassigned) [compound 343]",− (“−” indicates less than 50% inhibition at 10 μM),− (“−” indicates less than 50% inhibition at 10 μM),− (“−” indicates less than 50% inhibition at 10 μM),− (“−” indicates less than 50% inhibition at 10 μM),− (“−” indicates less than 50% inhibition at 10 μM),− (“−” indicates less than 50% inhibition at 10 μM),− (“−” indicates less than 50% inhibition at 10 μM),+ (“+” indicates greater than 50% inhibition at 10 μM),− (“−” indicates less than 50% inhibition at 10 μM),− (“−” indicates less than 50% inhibition at 10 μM),− (“−” indicates less than 50% inhibition at 10 μM),–
